Reference: ChEMBL document CHEMBL5291721, “A preclinical secondary pharmacology resource illuminates target-adverse drug reaction associations of marketed drugs” (Nat Commun, 2023)

Assays:
[1] = target: Beta-1 adrenergic receptor (Homo sapiens, UniProt P08588); assay type: functional
[2] = target: Kappa-type opioid receptor (Homo sapiens, UniProt P41145)
[3] = target: Voltage-dependent L-type calcium channel subunit alpha-1C (Rattus norvegicus, UniProt P22002); assay type: functional
[4] = target: T1, Alpha-1A adrenergic receptor (Homo sapiens, UniProt P35348); assay type: functional, cell-based
T1 sequence (P35348 whole entry): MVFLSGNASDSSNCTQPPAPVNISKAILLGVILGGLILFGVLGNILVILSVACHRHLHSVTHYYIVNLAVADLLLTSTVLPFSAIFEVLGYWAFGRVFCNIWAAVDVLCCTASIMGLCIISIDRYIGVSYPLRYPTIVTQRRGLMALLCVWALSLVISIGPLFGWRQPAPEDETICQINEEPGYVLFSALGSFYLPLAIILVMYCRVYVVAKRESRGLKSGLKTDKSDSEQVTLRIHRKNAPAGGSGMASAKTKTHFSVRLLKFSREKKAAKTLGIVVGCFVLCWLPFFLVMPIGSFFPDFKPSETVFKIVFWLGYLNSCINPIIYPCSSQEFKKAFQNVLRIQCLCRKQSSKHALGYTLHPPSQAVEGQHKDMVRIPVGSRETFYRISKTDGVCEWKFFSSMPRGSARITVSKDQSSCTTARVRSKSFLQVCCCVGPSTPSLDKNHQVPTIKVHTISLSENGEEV

[5] = target: T2, 5-hydroxytryptamine receptor 1A (Homo sapiens, UniProt P08908); assay type: functional, cell-based
T2 sequence (P08908 whole entry): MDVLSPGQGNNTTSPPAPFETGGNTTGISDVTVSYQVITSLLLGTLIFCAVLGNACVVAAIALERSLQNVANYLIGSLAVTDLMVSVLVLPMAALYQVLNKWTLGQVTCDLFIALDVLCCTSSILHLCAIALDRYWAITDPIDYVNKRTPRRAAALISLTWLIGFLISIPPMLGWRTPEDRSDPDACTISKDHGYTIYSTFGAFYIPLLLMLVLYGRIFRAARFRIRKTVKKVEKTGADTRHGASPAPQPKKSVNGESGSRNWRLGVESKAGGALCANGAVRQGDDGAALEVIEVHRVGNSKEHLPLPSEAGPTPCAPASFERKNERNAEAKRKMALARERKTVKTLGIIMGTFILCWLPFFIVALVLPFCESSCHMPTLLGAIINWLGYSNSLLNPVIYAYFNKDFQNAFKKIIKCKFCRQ

Cannabinoid receptor 1 = Cannabinoid receptor 1 (Homo sapiens, UniProt P21554); assay type: functional, cell-based
[6] = target: Beta-2 adrenergic receptor (Homo sapiens, UniProt P07550)
[7] = target: Prostaglandin G/H synthase 1 (Homo sapiens, UniProt P23219); assay type: functional
[8] = target: T3, Alpha-2A adrenergic receptor (Homo sapiens, UniProt P08913)
T3 sequence (P08913 whole entry): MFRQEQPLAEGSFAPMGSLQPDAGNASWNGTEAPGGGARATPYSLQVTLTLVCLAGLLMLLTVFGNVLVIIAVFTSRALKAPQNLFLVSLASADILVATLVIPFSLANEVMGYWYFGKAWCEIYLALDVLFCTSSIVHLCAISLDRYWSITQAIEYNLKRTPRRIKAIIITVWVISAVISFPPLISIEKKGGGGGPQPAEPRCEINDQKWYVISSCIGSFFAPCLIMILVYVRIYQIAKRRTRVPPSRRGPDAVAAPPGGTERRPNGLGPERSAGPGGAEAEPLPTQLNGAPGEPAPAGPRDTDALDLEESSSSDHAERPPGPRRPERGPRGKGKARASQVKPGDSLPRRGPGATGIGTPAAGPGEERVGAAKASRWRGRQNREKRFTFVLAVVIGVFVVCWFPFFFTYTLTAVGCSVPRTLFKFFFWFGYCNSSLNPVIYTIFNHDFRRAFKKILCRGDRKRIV

Mu-type opioid receptor = Mu-type opioid receptor (Homo sapiens, UniProt P35372)
Progesterone receptor = target: T4, Progesterone receptor (Homo sapiens, UniProt P06401); assay type: functional
T4 sequence (P06401 whole entry): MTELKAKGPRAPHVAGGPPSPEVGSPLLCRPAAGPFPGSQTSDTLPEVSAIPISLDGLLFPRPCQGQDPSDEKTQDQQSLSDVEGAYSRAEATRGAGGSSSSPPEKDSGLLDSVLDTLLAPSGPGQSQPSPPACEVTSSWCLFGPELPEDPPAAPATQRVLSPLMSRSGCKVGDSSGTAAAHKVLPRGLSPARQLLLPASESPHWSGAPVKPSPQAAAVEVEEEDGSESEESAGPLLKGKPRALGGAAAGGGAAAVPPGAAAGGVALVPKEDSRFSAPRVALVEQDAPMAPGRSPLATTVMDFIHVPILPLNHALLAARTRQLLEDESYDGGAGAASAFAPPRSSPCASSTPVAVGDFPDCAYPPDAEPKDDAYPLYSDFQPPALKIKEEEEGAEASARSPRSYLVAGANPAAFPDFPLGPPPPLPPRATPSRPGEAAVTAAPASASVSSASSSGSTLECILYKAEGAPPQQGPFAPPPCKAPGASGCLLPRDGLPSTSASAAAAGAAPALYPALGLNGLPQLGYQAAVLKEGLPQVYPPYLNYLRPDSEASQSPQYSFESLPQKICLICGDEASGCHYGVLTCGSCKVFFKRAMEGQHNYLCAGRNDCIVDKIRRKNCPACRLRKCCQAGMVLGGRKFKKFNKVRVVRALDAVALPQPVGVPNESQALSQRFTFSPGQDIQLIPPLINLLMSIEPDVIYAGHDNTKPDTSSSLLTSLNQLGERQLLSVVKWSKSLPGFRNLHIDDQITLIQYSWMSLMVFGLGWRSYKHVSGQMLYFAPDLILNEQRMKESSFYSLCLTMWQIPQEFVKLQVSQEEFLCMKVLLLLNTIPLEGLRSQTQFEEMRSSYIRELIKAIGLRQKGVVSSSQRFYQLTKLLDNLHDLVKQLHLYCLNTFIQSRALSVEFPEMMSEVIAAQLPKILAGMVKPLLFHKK
Note: assay procedure not described here.

Kappa-type opioid receptor, sequence (P41145 whole entry): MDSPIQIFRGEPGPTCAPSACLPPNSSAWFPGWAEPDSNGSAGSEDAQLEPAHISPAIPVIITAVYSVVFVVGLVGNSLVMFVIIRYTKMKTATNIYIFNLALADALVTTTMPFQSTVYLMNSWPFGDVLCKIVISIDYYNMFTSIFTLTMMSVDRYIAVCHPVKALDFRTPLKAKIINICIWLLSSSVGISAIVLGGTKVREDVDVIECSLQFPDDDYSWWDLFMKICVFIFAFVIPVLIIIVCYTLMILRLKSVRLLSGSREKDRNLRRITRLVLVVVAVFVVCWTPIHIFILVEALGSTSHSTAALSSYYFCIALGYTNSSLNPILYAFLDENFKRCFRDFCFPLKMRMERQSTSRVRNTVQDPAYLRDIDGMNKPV
Cannabinoid receptor 1, sequence (P21554 whole entry): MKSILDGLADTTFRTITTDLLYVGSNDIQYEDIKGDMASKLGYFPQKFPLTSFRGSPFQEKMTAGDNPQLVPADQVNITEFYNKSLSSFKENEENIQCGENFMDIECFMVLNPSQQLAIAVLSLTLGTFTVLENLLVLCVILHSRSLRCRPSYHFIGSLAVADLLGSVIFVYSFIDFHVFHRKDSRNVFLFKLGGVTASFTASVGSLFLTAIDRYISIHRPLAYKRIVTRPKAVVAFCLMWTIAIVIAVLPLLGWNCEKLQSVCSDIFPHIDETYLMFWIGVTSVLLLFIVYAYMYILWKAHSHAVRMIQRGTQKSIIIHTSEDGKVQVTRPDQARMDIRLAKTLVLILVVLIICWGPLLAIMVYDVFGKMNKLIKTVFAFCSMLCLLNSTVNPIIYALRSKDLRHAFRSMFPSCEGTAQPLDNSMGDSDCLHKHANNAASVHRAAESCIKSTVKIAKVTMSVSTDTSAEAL
Beta-2 adrenergic receptor, sequence (P07550 whole entry): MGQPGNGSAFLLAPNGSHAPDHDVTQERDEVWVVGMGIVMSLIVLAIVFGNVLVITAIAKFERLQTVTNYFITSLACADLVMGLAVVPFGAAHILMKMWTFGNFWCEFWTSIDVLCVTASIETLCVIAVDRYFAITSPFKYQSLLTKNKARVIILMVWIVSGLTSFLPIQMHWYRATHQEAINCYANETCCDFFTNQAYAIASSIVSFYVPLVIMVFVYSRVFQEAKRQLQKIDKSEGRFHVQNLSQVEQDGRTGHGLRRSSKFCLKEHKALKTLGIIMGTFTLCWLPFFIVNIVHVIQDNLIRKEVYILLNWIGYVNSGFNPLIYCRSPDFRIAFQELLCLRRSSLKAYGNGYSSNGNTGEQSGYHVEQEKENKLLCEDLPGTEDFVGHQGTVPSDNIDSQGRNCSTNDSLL
Mu-type opioid receptor, sequence (P35372 whole entry): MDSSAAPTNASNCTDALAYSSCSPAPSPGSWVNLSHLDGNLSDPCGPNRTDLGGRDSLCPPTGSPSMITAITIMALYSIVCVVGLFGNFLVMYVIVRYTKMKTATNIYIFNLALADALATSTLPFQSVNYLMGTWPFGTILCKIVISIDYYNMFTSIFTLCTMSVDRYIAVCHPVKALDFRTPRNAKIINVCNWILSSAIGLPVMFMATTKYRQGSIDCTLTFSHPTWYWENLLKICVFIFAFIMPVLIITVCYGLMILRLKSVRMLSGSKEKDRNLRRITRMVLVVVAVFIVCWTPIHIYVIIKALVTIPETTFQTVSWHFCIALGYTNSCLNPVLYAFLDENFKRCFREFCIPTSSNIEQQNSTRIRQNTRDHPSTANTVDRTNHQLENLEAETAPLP
Prostaglandin G/H synthase 1, sequence (P23219 whole entry): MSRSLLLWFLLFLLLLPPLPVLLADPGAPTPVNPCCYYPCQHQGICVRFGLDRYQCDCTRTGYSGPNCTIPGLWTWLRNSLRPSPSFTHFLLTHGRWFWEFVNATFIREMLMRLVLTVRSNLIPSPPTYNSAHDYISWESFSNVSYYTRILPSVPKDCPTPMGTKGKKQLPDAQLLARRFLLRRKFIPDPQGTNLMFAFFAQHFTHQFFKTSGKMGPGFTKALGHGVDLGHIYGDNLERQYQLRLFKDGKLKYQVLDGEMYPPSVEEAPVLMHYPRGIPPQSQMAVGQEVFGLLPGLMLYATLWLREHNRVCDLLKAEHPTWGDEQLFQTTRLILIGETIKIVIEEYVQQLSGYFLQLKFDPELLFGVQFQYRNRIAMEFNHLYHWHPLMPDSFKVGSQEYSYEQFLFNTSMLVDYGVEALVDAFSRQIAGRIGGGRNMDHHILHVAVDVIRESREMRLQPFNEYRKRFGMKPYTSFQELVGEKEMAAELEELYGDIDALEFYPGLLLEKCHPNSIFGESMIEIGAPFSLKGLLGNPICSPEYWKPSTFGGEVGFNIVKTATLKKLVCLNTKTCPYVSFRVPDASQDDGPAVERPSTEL
Voltage-dependent L-type calcium channel subunit alpha-1C, sequence (P22002 whole entry): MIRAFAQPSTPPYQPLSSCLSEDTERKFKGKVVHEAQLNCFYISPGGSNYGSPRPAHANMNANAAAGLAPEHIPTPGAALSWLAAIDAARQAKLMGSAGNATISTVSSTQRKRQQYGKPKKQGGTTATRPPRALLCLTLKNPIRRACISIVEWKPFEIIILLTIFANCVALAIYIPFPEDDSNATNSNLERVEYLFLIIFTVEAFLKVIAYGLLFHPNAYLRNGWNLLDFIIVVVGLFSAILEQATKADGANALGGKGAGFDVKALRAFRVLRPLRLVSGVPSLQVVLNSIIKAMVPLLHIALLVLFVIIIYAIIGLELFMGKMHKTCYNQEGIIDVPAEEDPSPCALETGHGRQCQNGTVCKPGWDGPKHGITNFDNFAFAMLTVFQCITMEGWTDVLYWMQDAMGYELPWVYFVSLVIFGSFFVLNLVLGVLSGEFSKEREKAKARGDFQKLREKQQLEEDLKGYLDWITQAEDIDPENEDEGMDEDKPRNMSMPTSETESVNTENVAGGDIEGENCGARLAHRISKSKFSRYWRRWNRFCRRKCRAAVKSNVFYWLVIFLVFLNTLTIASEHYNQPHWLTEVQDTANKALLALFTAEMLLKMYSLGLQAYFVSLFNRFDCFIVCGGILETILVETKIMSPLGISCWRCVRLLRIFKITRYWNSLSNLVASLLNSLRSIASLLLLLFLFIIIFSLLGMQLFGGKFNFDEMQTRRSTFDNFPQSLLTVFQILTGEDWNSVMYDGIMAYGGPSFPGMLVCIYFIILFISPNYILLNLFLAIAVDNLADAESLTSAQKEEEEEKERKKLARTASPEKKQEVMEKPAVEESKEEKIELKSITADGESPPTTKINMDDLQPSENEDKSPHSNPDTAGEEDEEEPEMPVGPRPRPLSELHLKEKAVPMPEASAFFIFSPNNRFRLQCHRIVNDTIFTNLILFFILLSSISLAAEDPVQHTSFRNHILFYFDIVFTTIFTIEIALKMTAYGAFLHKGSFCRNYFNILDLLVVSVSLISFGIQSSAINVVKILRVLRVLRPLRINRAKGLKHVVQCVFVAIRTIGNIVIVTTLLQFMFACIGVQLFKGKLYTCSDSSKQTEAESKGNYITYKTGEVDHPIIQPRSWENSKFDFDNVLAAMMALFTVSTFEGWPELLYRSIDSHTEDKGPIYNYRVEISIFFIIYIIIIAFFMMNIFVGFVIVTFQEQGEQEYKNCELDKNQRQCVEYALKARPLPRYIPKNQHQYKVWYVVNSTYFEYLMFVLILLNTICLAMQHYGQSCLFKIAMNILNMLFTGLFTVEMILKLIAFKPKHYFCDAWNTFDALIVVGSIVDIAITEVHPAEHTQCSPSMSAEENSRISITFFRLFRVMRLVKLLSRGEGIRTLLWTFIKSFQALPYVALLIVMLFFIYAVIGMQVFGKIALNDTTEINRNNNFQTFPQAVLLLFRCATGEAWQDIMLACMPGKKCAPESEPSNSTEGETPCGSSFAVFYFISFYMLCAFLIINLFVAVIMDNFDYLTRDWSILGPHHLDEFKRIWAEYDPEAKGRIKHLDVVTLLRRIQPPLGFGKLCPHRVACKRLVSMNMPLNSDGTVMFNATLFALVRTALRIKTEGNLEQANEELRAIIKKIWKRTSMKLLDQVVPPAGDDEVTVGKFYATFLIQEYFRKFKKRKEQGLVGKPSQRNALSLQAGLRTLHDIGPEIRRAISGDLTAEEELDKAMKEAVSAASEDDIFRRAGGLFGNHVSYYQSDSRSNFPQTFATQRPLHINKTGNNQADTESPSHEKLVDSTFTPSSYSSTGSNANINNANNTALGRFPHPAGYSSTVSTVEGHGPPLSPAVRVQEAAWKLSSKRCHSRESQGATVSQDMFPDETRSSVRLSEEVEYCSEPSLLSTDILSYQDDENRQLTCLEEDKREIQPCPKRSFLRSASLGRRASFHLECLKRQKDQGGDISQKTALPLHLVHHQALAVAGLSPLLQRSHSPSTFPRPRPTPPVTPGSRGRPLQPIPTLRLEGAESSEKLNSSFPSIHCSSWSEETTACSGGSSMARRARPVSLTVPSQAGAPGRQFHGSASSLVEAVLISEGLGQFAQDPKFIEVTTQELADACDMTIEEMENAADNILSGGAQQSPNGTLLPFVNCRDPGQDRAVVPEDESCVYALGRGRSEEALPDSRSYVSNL
Beta-1 adrenergic receptor, sequence (P08588 whole entry): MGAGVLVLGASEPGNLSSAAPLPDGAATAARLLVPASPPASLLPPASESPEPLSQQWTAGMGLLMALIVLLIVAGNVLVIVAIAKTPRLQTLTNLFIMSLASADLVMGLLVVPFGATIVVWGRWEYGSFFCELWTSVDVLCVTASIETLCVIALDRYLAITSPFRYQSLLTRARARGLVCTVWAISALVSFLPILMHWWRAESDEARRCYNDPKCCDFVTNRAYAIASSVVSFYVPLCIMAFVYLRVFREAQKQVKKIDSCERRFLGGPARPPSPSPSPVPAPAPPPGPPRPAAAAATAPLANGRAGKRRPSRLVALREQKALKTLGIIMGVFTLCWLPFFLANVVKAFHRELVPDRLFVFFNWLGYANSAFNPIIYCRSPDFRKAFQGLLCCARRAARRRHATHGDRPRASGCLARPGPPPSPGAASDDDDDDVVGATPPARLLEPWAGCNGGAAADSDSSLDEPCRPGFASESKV

SMILES | AC50 [1] | AC50 [2] | AC50 [3] | AC50 [4] | AC50 [5] | AC50 (Cannabinoid receptor 1) | AC50 [6] | AC50 [7] | AC50 [8] | AC50 (Mu-type opioid receptor) | AC50 (Progesterone receptor)
CCN(CC)CCNC(=O)c1cc(Cl)c(N)cc1OC [METOCLOPRAMIDE] | > 10 µM | > 10 µM | > 10 µM | > 30 µM | > 10 µM | > 30 µM | > 10 µM | – | – | – | –
Sc1ncnc2nc[nH]c12 [MERCAPTOPURINE ANHYDROUS] | – | – | – | – | – | – | – | 14.6 µM | > 30 µM | > 30 µM | –
Cc1cc(O)cc(C)c1Cl [CHLOROXYLENOL] | – | – | – | – | – | – | – | > 30 µM | > 30 µM | > 30 µM | –
CCOC(=O)[C@H](CCc1ccccc1)N[C@@H](C)C(=O)N1CCC[C@H]1C(=O)O | > 10 µM | > 10 µM | > 10 µM | > 30 µM | > 10 µM | > 30 µM | > 10 µM | – | – | – | –
O=C1c2ccccc2C(=O)C1C(=O)C(c1ccccc1)c1ccccc1 [DIPHENADIONE] | – | – | – | – | – | – | – | 20.4 µM | > 30 µM | > 30 µM | –
CCO/N=C(\C(=O)N[C@@H]1C(=O)N2C(C(=O)[O-])=C(Sc3nc(-c4cc[n+](C)cc4)cs3)CS[C@H]12)c1nsc(N)n1 [CEFTAROLINE] | – | – | – | – | – | – | – | > 30 µM | > 30 µM | > 30 µM | –
CN(C)CCCN1c2ccccc2CCc2ccc(Cl)cc21 [CLOMIPRAMINE] | – | – | > 10 µM | > 30 µM | – | – | – | – | 3.63 µM | 1.9 µM | –
Cc1c(-c2ccccc2)oc2c(C(=O)OCCN3CCCCC3)cccc2c1=O [FLAVOXATE] | – | – | – | – | – | – | – | > 30 µM | 13.9 µM | 3.05 µM | –
O=C1CC[C@@]2(O)[C@H]3Cc4ccc(O)c5c4[C@@]2(CCN3CC2CC2)[C@H]1O5 [NALTREXONE] | – | – | – | – | – | – | – | > 30 µM | > 30 µM | – | –
CCC(=O)c1c(O)cc(O)cc1O [FLOPROPIONE] | – | – | – | – | – | – | – | > 30 µM | > 30 µM | > 30 µM | –
CC(=O)OC[C@H]1O[C@@H](n2ccc(=O)[nH]c2=O)[C@H](OC(C)=O)[C@@H]1OC(C)=O [URIDINE TRIACETATE] | – | – | – | – | – | – | – | > 30 µM | > 30 µM | > 30 µM | –
CC(N/C(=N\C#N)Nc1ccncc1)C(C)(C)C (stereo not given) [PINACIDIL ANHYDROUS] | – | – | – | – | – | – | – | > 30 µM | > 30 µM | > 30 µM | –
NC(N)=Nc1nc(CSCCC(N)=NS(N)(=O)=O)cs1 [FAMOTIDINE] | > 10 µM | > 10 µM | > 10 µM | > 30 µM | > 10 µM | > 30 µM | > 10 µM | – | – | – | –
Cc1cc2c(cc1CC(=O)c1sccc1S(=O)(=O)Nc1onc(C)c1Cl)OCO2 [SITAXENTAN] | – | – | – | – | – | – | – | > 30 µM | > 30 µM | > 30 µM | –
O=C1[C@H](CC[C@H](O)c2ccc(F)cc2)[C@@H](c2ccc(O)cc2)N1c1ccc(F)cc1 [EZETIMIBE] | – | – | – | – | – | – | – | 6.72 µM | > 30 µM | 13.9 µM | –
Cc1ccc(O)c2ncccc12 [TILIQUINOL] | – | – | – | – | – | – | – | > 30 µM | > 30 µM | > 30 µM | –

SMILES | AC50 [1] | AC50 [2] | AC50 [3] | AC50 [4] | AC50 [5] | AC50 (Cannabinoid receptor 1) | AC50 [6] | AC50 [7] | AC50 [8] | AC50 (Mu-type opioid receptor) | AC50 (Progesterone receptor)
CCC[C@@H]1C[C@@H](C(=O)N[C@@H]([C@H]2O[C@H](SC)[C@H](O)[C@@H](O)[C@H]2O)[C@H](C)Cl)N(C)C1 [CLINDAMYCIN] | > 10 µM | > 10 µM | > 10 µM | > 30 µM | > 10 µM | > 30 µM | > 10 µM | – | – | – | –
CC[C@H](C)C(=O)O[C@H]1C[C@H](O)C=C2C=C[C@H](C)[C@H](CC[C@@H](O)C[C@@H](O)CC(=O)O)[C@H]21 [PRAVASTATIN] | > 30 µM | > 10 µM | > 10 µM | > 30 µM | > 30 µM | > 30 µM | > 10 µM | – | – | – | > 30 µM
O=C1c2c(O)c(=O)ccn2N([C@@H]2c3ccccc3SCc3c2ccc(F)c3F)[C@@H]2COCCN12 [BALOXAVIR] | – | – | – | – | – | – | – | > 30 µM | > 30 µM | 22 µM | –
CN1CCCC(CN2c3ccccc3Sc3ccccc32)C1 (stereo not given) [MEPAZINE] | – | – | – | – | – | – | – | > 30 µM | 8.25 µM | 6.07 µM | –
OC[C@@H](O)[C@@H](O)[C@H](O)[C@H](O)CO [MANNITOL] | – | – | – | – | – | – | – | > 30 µM | > 30 µM | > 30 µM | –
NS(=O)(=O)c1cc2c(cc1Cl)NCNS2(=O)=O [HYDROCHLOROTHIAZIDE] | > 10 µM | > 10 µM | > 10 µM | – | > 10 µM | – | > 10 µM | – | – | – | –
C#C[C@]1(O)CC[C@H]2[C@@H]3CCC4=CC(=O)CC[C@@H]4[C@H]3CC[C@@]21CC [LEVONORGESTREL] | – | – | – | – | – | – | – | > 30 µM | > 30 µM | > 30 µM | –
CCOC(=O)c1ccc(O)cc1 [ETHYLPARABEN] | – | – | – | – | – | – | – | > 30 µM | > 30 µM | > 30 µM | –
CC(C)NNC(=O)c1ccncc1 [IPRONIAZID] | > 30 µM | – | – | > 30 µM | > 30 µM | > 30 µM | – | – | – | – | > 30 µM
C[N+](C)(C)CCCCCCCCCC[N+](C)(C)C [DECAMETHONIUM] | – | – | – | – | – | – | – | > 30 µM | > 30 µM | > 30 µM | –
CC(C)OC(=O)[C@H](C)N[P@](=O)(OC[C@H]1O[C@@H](n2ccc(=O)[nH]c2=O)[C@](C)(F)[C@@H]1O)Oc1ccccc1 [SOFOSBUVIR] | – | – | – | – | – | – | – | > 30 µM | > 30 µM | > 30 µM | –
C[N+]1(C)[C@@H]2C[C@@H](OC(=O)[C@H](CO)c3ccccc3)C[C@H]1[C@@H]1O[C@@H]12 [METHSCOPOLAMINE] | – | – | – | – | – | – | – | > 30 µM | > 30 µM | > 30 µM | –
O=C(COc1ccc(Cl)cc1)N1CCN(Cc2ccc3c(c2)OCO3)CC1 [FIPEXIDE] | – | – | – | – | – | – | – | > 30 µM | 11.1 µM | 18.4 µM | –
CC(=O)Oc1c(C)cc(OCC(O)CNC(C)C)c(C)c1C (stereo not given) [METIPRANOLOL] | – | – | – | – | – | – | – | > 30 µM | > 30 µM | > 30 µM | –
CC(C)(C(=O)c1cccnc1)c1cccnc1 [METYRAPONE] | > 10 µM | > 10 µM | > 10 µM | – | > 10 µM | – | > 10 µM | – | – | – | > 10 µM
CC(=O)OCC(=O)[C@@]1(O)CC[C@H]2[C@@H]3CCC4=CC(=O)CC[C@]4(C)[C@H]3C(=O)C[C@@]21C [CORTISONE ACETATE] | – | > 30 µM | – | > 30 µM | > 30 µM | > 30 µM | – | – | – | – | –
